Earlier results as cited in patent publication US20210259278A1, “CHEWING GUM CONTAINING VITAMIN C” (priority 2018, published 2021).

Tested on: nausea in humans

For `O=C1O[C@H]([C@@H](O)CO)C(O)=C1O` [vitamin C, L-(+)-ascorbic acid], the treatment of nausea (administration of vitamin C, for example in connection with seasickness) is listed as “found to be effective” and the “prevention of the occurrence of nausea in all test subjects” value (vitamin C alone) is listed as “could not reliably prevent the occurrence of nausea in all test subjects”.
